In one data set the test system is HP15. Nature of the data set: Melting temperature of PNA hybridization complexes with HP15 (UV absorbance at 260 nm). The format is physicochemical. The note with it: duplex with HP15, monitored at 260 nm. On the procedure: Melting temperatures for HP15:HP16, HP15:HP17 and HP15:HP18 were determined by monitoring UV absorbance at 260 nm (Chirascan™, Applied Photophysics) at a temperature range from 20 to 95° C., using a temperature change of 1° C./min. The PNA complexes were heated to 80° C. for 5 min and were then allowed to hybridize at room temperature for 5 min prior to UV monitoring at room temperature for 5 min. CD spectra were collected before and after determination of thermal denaturation. The melting temperature for the HP15:HP19 complex was determined using a Varian Cary 50 Bio UV-visual spectrophotometer equipped with a single-cell Peltier thermostat controlled cuvette holder. The temperature in the cell was adjusted at a speed of 0.5° C./min between 20 to 80° C., and measurements were taken at 260 nm after a 60 s equilibration at each temperature point.

Another data set concerns ZHER2:342-SR-HP15. The experiment in a line: SPR hybridization of complementary PNA probes to immobilized ZHER2:342-SR-HP15. Conditions: for kd: dissociation 10 000 s; for affinity to ZHER2:342-SR-HP15 relative to HP16: SPR, kd too slow to determine. The data set is classed as binding. On the procedure: The kinetic parameters for hybridization of the PNA probes were analyzed using surface plasmon resonance (SPR) on a Biacore™ 8K instrument (GE Healthcare). Dextran chips Series S Sensor CM5 (GE Healthcare), were functionalized with ZHER2:342-SR-HP15 on four surfaces to 385, 194, 185 and 353 resonance units (RU) using standard amine coupling procedures. A reference surface on each chip was subjected to activation followed by deactivation. The complementary PNA probes HP16, HP17, HP18 and HP19 were injected at 5 concentrations; 22.6, 45.3, 90.6, 181.25 and 362.5 nM using a single cycle injection. Association for each concentration was allowed for 300 s, followed by the next injection and association phase. After injection of the final concentration, dissociation was allowed for 10 000 s (2 h 47 min) before regeneration with 10 mM HCl for 30 s followed by 15 mM NaOH for 30 s. All runs were performed in PBST (0.05% Tween-20) pH 7.4 using a flow rate of […] at 25° C. Kinetic parameters were calculated using 1:1 binding model in Biacore Insight Evaluation software.

The next data set concerns SKOV3 xenografts. The experiment in a line: Estimated dosimetry: areas under time-activity plots for kidney and tumor. The data set is classed as in vivo, BALB/c nu/nu mice. The note with it: non-decay corrected data, 4 and 144 h, pretargeted. On the procedure: To estimate a ratio of absorbed doses in tumor and kidneys, cumulated activity in kidney and tumor were assessed. The estimation was based on a clinically validated two time point approach (Freedman 2020). The biodistribution data were non-decay corrected and areas under time-activity plot was calculated using GraphPad Prism software. The assumptions were that the main absorbed dose will be due to beta-particles, as cross-doses would be negligible, and the absorbed fraction would be equal to 1.

The nature of data set [1]: In vitro stability of 177Lu-labeled probes (EDTA challenge, PBS control). The format is physicochemical. Conditions: 177Lu-labeled probe, 500-fold molar excess of EDTA. On the procedure:
To evaluate stability, a fraction of the freshly radiolabeled conjugate (0.4 μg) was incubated with 500-fold molar excess of EDTA for 60 min at 37° C. Incubation was also performed in PBS as a control. The test was run in triplicates.

The mark [2] stands for this setting: binding to immobilized ZHER2:342-SR-HP15, SPR.

The values below come from patent US20240148917A1, “PNA PROBES FOR PRETARGETED IMAGING AND THERAPY” (Zytox Therapeutics AB, priority 2020, published 2024).

“And” between values parts separate entries of the source, which are not always exact repeats. Identical values can stand only once. {DOTA-AEEA-S-S} = N-terminal DOTA chelator joined through an AEEA linker and two serines; {EEY-NH2} = C-terminal Glu-Glu-Tyr amide

As a reminder, the Tm is the temperature at the midpoint of the melting transition. By Kd is commonly meant the equilibrium constant for the complex coming apart. Read a low Kd as a tighter complex.

For “DOTA-AEEA-S-S-a-a-c-a-c-c-a-g-g-E-E-Y-NH2 (AACACCAGG; chemistry not fully specified) [HP16, secondary probe, 9-mer PNA]”, the midpoint of thermal melting (Tm) in the data set with HP15 was 73 °C. In addition, in the data set with ZHER2:342-SR-HP15 (setting [2]), the ka turned out to be 46000 M⁻¹ s⁻¹ and the kd is 1.2e-05 s⁻¹. Further, in the data set on ZHER2:342-SR-HP15 (binding to immobilized ZHER2:342-SR-HP15, SPR, 25° C., 1:1 model), the Kd was ~0.28 nM and 0.28 nM. In addition, the “Tumor-to-kidney ratio (areas under time-activity plots)” value (from here on “Tumor-to-kidney ratio”) with SKOV3 xenografts is recorded as 3.8. Moreover, the “Stability (×500 EDTA), 37° C., 1 h” value in data set [1] is given as 100 ± 0.

Regarding “DOTA-AEEA-S-S-a-c-c-a-g-g-E-E-Y-NH2 [HP19]”, the Tm in the data set with HP15 is 55 °C. In the data set on ZHER2:342-SR-HP15 (setting [2]), this substance showed a ka of 2.1e+07 M⁻¹ s⁻¹ and a kd of 0.072 s⁻¹. In the data set with ZHER2:342-SR-HP15 (interaction with HP15, SPR), this substance yielded a dissociation constant (Kd) of 3.4 nM.

Regarding “DOTA-AEEA-S-S-a-t-c-a-a-c-a-c-c-a-g-g-E-E-Y-NH2 (ATCAACACCAGG; chemistry not fully specified) [HP17, secondary probe, 12-mer PNA]”, the Tm in the data set on HP15 is 75 °C. In addition, the “affinity to ZHER2:342-SR-HP15 relative to HP16” value with ZHER2:342-SR-HP15 is “estimated to be higher”. Further, in the data set with ZHER2:342-SR-HP15 (setting [2]), the ka was 43000 M⁻¹ s⁻¹ and the kd result is given as “too slow to be determined”. Moreover, the “Tumor-to-kidney ratio” value in the data set with SKOV3 xenografts is given as 2.8. The “Stability (×500 EDTA), 37° C., 1 h” value in data set [1] is on record as 100 ± 0.

With “DOTA-AEEA-S-S-a-t-c-a-t-c-a-a-c-a-c-c-a-g-g-E-E-Y-NH2 (ATCATCAACACCAGG; all peptide nucleic acid (PNA), 5' {DOTA-AEEA-S-S}, 3' {EEY-NH2}) [HP18, secondary probe, 15-mer PNA]”, the Tm in the data set with HP15 amounted to 87 °C. Also, in the data set with ZHER2:342-SR-HP15, the “affinity to ZHER2:342-SR-HP15 relative to HP16” value is reported as “estimated to be higher”. Further, in the data set with ZHER2:342-SR-HP15 (setting [2]), the ka was found to be 57000 M⁻¹ s⁻¹ and the kd entry is “too slow to be determined”. For the same substance, the “Tumor-to-kidney ratio” value in the data set on SKOV3 xenografts is listed as 2.0. In addition, the “Stability (×500 EDTA), 37° C., 1 h” value in data set [1] was found to be 100 ± 0.

Take “DOTA-AEEA-S-S-g-a-c-t-a-c-a-t-c-c-a-g-a-c-t-E-E-Y-NH2 (GACTACATCCAGACT; all peptide nucleic acid (PNA), 5' {DOTA-AEEA-S-S}, 3' {EEY-NH2}) [HP2, first-generation secondary PNA probe (Westerlund et al, 2015), reference compound]”: the “Tumor-to-kidney ratio” value with SKOV3 xenografts was 2.0.
